# Structures can show the parent of a compound that is named as a salt. Where two headings read alike, the source gives them in different places.
# Experiments:
# [1] = system: eye redness; details: brimonidine […]; for Redness (from 0 to 4) (right eye): pH 7.0 to right eye
# Description: (§1) All pupil measurements were made using Marco video monitor pupillometry in a darkened room, which was captured via digital image capture and monitor adjustable caliper measurement. Once the dark adapted pupil was digitially captured, the instrument allows superiposition of a caliper with 0.1 mm increments to measure the pupil diameter.
# [2] = system: scotopic pupil; details: brimonidine […]; for % reduction of scotopic pupil size (left eye) / Scotopic pupil size (mm) (left eye): contralateral control left eye, pH 7.0 to right eye; for % reduction of scotopic pupil size (right eye) / Scotopic pupil size (mm) (right eye): treated right eye, pH 7.0
# Description: as §1
# [3] = system: pupil size; details: for Onset of pupil reduction / Pupil reduction at 1 hour (mm) / Range (pupil size) at 3 hours: brimonidine […], pH 7.0 q am
# Experimental: The pupil size was measured at the baseline and then 10 minutes and 3 hours after instillation for 3 consecutive weeks.
# [4] = system: pupil dilation
# [5] = system: surface vasoconstriction; details: brimonidine 0.01% to 0.05% weight by volume, particularly 0.01% to […]
# [6] = cited from earlier work; for floppy iris syndrome: systemic or topical α1-adrenoceptor antagonist (Oshika et al); for side effects upon application: in vivo
# [7] = pH 7.1; with added constituents of a balanced salt solution
# Description: The terms “salt” and “constituent of a balanced salt solution” are used interchangeably for the purposes of the present invention. They are a subset of agents that improve solubility of the inventive formulations.
# [8] = system: pupil size in dim light; details: cited from earlier work
# [9] = system: pupil; details: bunazosin at 0.3%; cited from earlier work
# [10] = system: intraocular pressure; details: bunazosin at 0.3%; measured 6 hours post instillation; cited from earlier work
# [11] = system: conjunctival hyperemia; details: bunazosin at 0.3%; cited from earlier work
# [12] = Day 2.1 (follows 20 days of consecutive use)
smiles,measurement,setting,value
"Brc1c(NC2=NCCN2)ccc2nccnc12.O=C(O)C(O)C(O)C(=O)O [brimonidine, 5-bromo-6-(2-imidazolin-2-ylamino)quinoxaline D-tartrate]",eye whitening in the right eye,"[1]; pH 7.0, at 0.5 hr, 1.25 hr, 2.25 hr and 3.25 hr",significant eye whitening
same,Redness (from 0 to 4) (right eye),[1]; time 0 hr (baseline),2
same,Redness (from 0 to 4) (right eye),[1]; time 0.05 hr,0
same,Redness (from 0 to 4) (right eye),[1]; time 0.5 hr,0
same,Redness (from 0 to 4) (right eye),[1]; time 1.25 hr,0
same,Redness (from 0 to 4) (right eye),[1]; time 2.25 hr,0
same,Redness (from 0 to 4) (right eye),[1]; time 3.25 hr,0
same,pupil modulation in contralateral control (left eye),[2]; pH 7.0 applied to right eye,delayed but significant pupil modulation
same,% reduction of scotopic pupil size (left eye),[2]; time 0 hr (baseline),0%
same,Scotopic pupil size (mm) (left eye),[2]; time 0 hr (baseline),5 mm
same,% reduction of scotopic pupil size (left eye),[2]; time 0.05 hr,0%
same,Scotopic pupil size (mm) (left eye),[2]; time 0.05 hr,5 mm
same,% reduction of scotopic pupil size (left eye),[2]; time 0.5 hr,0%
same,Scotopic pupil size (mm) (left eye),[2]; time 0.5 hr,5 mm
same,% reduction of scotopic pupil size (left eye),[2]; time 1.25 hr,0%
same,Scotopic pupil size (mm) (left eye),[2]; time 1.25 hr,5 mm
same,% reduction of scotopic pupil size (left eye),[2]; time 2.25 hr,20%
same,Scotopic pupil size (mm) (left eye),[2]; time 2.25 hr,4 mm
same,% reduction of scotopic pupil size (left eye),[2]; time 3.25 hr,20%
same,Scotopic pupil size (mm) (left eye),[2]; time 3.25 hr,4 mm
same,% reduction of scotopic pupil size (right eye),[2]; time 0 hr (baseline),0%
same,Scotopic pupil size (mm) (right eye),[2]; time 0 hr (baseline),5 mm
same,% reduction of scotopic pupil size (right eye),[2]; time 0.05 hr,0%
same,Scotopic pupil size (mm) (right eye),[2]; time 0.05 hr,5 mm
same,% reduction of scotopic pupil size (right eye),[2]; time 0.5 hr,10%
same,Scotopic pupil size (mm) (right eye),[2]; time 0.5 hr,4.5 mm
same,% reduction of scotopic pupil size (right eye),[2]; time 1.25 hr,20%
same,Scotopic pupil size (mm) (right eye),[2]; time 1.25 hr,4 mm
same,% reduction of scotopic pupil size (right eye),[2]; time 2.25 hr,30%
same,Scotopic pupil size (mm) (right eye),[2]; time 2.25 hr,3.5 mm
same,% reduction of scotopic pupil size (right eye),[2]; time 3.25 hr,30%
same,Scotopic pupil size (mm) (right eye),[2]; time 3.25 hr,3.5 mm
same,Baseline pupil size,"[3]; baseline before instillation, dark conditions",6.2 mm
same,Onset of pupil reduction,"[3]; one eye, Day 1-20 Avg",10 to 15 min
same,Pupil reduction at 1 hour (mm),[3]; Day 1-20 Avg,≥ 1 mm
same,Range (pupil size) at 3 hours,[3]; Day 1-20 Avg,3.8-4.2
same,Onset of pupil reduction,[3]; [12],10 to 15 min
same,Pupil reduction at 1 hour (mm),[3]; [12],≥ 1 mm
same,Range (pupil size) at 3 hours,[3]; [12],3.8-4.2
same,pupil effect in one individual,"[4]; brimonidine […], pH 6.5, one individual who later responded at pH 7.1",no pupil effect
same,treated patients with pupil modulation,"[4]; brimonidine […], pH 7.1, one eye, 4 individuals",100%
same,individuals who experienced reduced dilation,"[4]; topical brimonidine […], pH 6.5, one eye, 13 individuals, modest indoor lighting",2 individuals
same,treated patients with reduced dilation,"[4]; topical brimonidine […], pH 6.5, 13 individuals",15.4%
same,individuals with pupil modulation,"[4]; topical brimonidine […], pH 7.1",4 out of 4
same,"surface vasoconstriction, redness and whiteness versus equivalent concentration of oxymetazoline",[5],"improved surface vasoconstriction, reduced surface redness, and improved whiter appearance"
CCOc1ccccc1OCCN[C@H](C)Cc1ccc(OC)c(S(N)(=O)=O)c1 [tamsulosin],floppy iris syndrome,[6],floppy iris syndrome
Cc1cccc([C@H](C)c2cnc[nH]2)c1C [dexmedetomidine],solubility,[7],≥ 0.1%
"Cc1ccccc1N1CCN(CCc2nnc3n2CCCC3)CC1 [dapiprazole, 5,6,7,8-tetrahydro-3-[2-(4-o,tolyl-1-piperazinypethyl]-8-triazolo[4,3-a]pyridine hydrochloride]",effect on pupil size in dim light,[8]; clinical application,very little effect on pupil size in dim light
same,side effects upon application,[6],redness and frequently chemosis
CCCC(=O)N1CCCN(c2nc(N)c3cc(OC)c(OC)cc3n2)CC1 [Bunazosin],pupil reduction,[9],about 1.0 mm
same,intraocular pressure reduction,[10],about 20%
same,duration before return to baseline,[11],about 24 hours
same,mean conjunctival hyperemia score,[11],1.5 /4
C[C@H](Cc1cc2c(c(C(N)=O)c1)N(CCCO)CC2)NCCOc1ccccc1OCC(F)(F)F [sidolosin],floppy iris syndrome,[6],floppy iris syndrome
CC[C@@H]1C(=O)OC[C@@H]1Cc1cncn1C [pilocarpine],duration of effect,[8]; in vivo,lasts only a few hours
same,pupil in dim light,[8]; when first applied,below 3 mm
same,side effects upon application,[6],"brow ache, ciliary muscle contraction and pseudo myopia (muscle spasm of accommodation), and redness"

# Reference: US20120277239A1, “Compositions and Methods for Improving Night Vision” (ALPHA SYNERGY DEVELOPMENT INC., priority 2011, published 2012)
